This note sets out measurements from patent US10730875B2, “Substituted imidazo[1,2-A]pyridin-2-ylamine compounds, and pharmaceutical compositions and methods of use thereof” (JN Therapeutics, priority 2015, dated 2020).

A word on the IC50: it is the concentration needed to halve the response being measured.

Experiment [1] has as its target human Janus kinase 1 (JAK1), recombinant catalytic domain (Homo sapiens (Human), UniProt P23458). Kind of experiment: LanthaScreen TR-FRET enzymatic assay, JAK1. It counts as biochemical. To be noted: 1 mM ATP, GFP-STAT1 substrate, read-out: Inhibitory Activity IC50 JAK1. Here is the method: (§1) The in vitro inhibition of recombinant human JAKs was determined as follow.
(§2) Compounds were tested in LANTHASCREEN™ time-resolved fluorescence energy transfer (TR-FRET) enzymatic assays from Invitrogen. The human Janus kinase 1 (JAK1) used in the assay is the recombinant JAK1 catalytic domain (amino acids 866-1154) expressed and purified from insect cells (Invitrogen, Cat. No. PV4774). The human Janus kinase 2 (JAK2) used in the assay is the recombinant JAK2 catalytic domain (amino acids 808-1132) expressed and purified from insect cells (Invitrogen, Cat. No. PV4210). The human Janus kinase 3 (JAK3) used in the assay is the recombinant JAK3 catalytic domain (amino acids 781-1124) expressed and purified from insect cells (Invitrogen, Cat. No. PV3855). The human tyrosine kinase 2 (TYK2) used in the assay is the recombinant TYK2 catalytic domain (amino acids 833-1187) expressed and purified from insect cells (Invitrogen, Cat. No. PV4790). The substrate is a recombinant STAT1 expressed as a fusion with GFP (Green Fluorescent Protein) to act as a physiological substrate (Invitrogen, Cat. No. PV5211).
(§3) Test compounds were prepared and diluted in DMSO in 3-fold serial dilutions for 10 doses to 100× of the final testing concentrations. The compounds were then further diluted to 4× by the kinase reaction buffer (Invitrogen, Cat. No. PV3189). The enzymatic reaction for compound testing was performed in a white 384-well polypropylene plate (Packard, Cat. No. 6005214) with a total reaction volume of 10 μL containing 440 ng/mL JAK1, 11 ng/mL JAK2, 400 ng/mL JAK3, or 200 ng/mL TYK2, 100 nM substrate, and 1 mM ATP. The assay started with loading 2.5 μL of JAK1, JAK2, JAK3, or TYK2 diluted in the kinase reaction buffer to wells, followed by addition of an equal volume of 4× compounds for 15-min incubation at room temperature for pre-treatment. The enzymatic reaction was initiated by addition of 5 μL of a mixture of the substrate and ATP prepared in the kinase reaction buffer. After one hour reaction, 10 μL mixture of EDTA (final 10 mM) and terbium-labeled anti-pSTAT1 (pTyr701) antibody (final 2 nM) (Invitrogen, Cat. No. PV4844) prepared in TR-FRET antibody dilution buffer (Invitrogen, Cat. No. PV3574) was added to stop the enzymatic reaction and produce TR-FRET signals. After 30 minutes of incubation at room temperature, the plate was read in Tecan Infinite F200 Pro with the following settings: Excitation 340 nm (30)/Emission1 495 nm (10)/Emission2 520 nm (25). The TR-FRET values were dimensionless numbers that were calculated as the ratio of the acceptor ([…]) signal to the donor (Terbium) signal. Percent of inhibition was calculated as (100%−percentage of compound-treated/DMSO vehicle-treated). The dose-response curves were generated and the IC50s were calculated by nonlinear sigmoid curve fitting using GraphPad Prism.
(§4) In Table 1, A represents a value no greater than 500 nM, B represents a value greater than 500 nM but no greater than 1 μM, C represents a value greater than 1 μM but no greater than 5 μM, and D represents a value greater than 5 μM. In Table 2, A′ represents a ratio of greater than 8, B′ represents a ratio of no greater than 8 but no less than 4, C′ represents a ratio of no greater than 4 but no less than 2, and D′ represents a ratio of no greater than 2. The selectivity is expressed as a ratio of the IC50 values of a compound against two kinases to be compared.
(In general: In TR-FRET formats the signal depends on donor and acceptor labels being close together.)

Experiment [2] addresses human Janus kinase 2 (JAK2), recombinant catalytic domain (Homo sapiens (Human), UniProt O60674). The experiment can be described thus: LanthaScreen TR-FRET enzymatic assay, JAK2. The class given is biochemical. To be noted: for IC50: TR-FRET, 1 mM ATP, GFP-STAT1 substrate, read-out: Inhibitory Activity IC50 JAK2; for Selectivity JAK2/JAK1: ratio of IC50 against JAK2 over IC50 against JAK1. How it is done:
as §1, §2, §3, §4

Experiment [3] addresses human Janus kinase 3 (JAK3), recombinant catalytic domain (Homo sapiens (Human), UniProt P52333). The experiment can be described thus: LanthaScreen TR-FRET enzymatic assay, JAK3. The class given is biochemical. The conditions noted are these: TR-FRET, 1 mM ATP, GFP-STAT1 substrate; read-out: Inhibitory Activity IC50 JAK3. Here is the method:
as §1, §2, §3, §4

Experiment [4] concerns human Janus kinase 3 (JAK3), recombinant catalytic domain. Kind of experiment: LanthaScreen TR-FRET enzymatic assay, JAK3. The conditions noted are these: ratio of IC50 against JAK3 over IC50 against JAK1. It counts as biochemical. Here is the method: as §1, §2, §3, §4
Experiment [5] addresses human tyrosine kinase 2 (TYK2), recombinant catalytic domain (Homo sapiens (Human), UniProt P29597). The experiment can be described thus: LanthaScreen TR-FRET enzymatic assay, TYK2. It counts as biochemical. To be noted: TR-FRET, 1 mM ATP, GFP-STAT1 substrate; read-out: Inhibitory Activity IC50 TYK2. How it is done:
as §1, §2, §3, §4

For experiment [6], the system named is human tyrosine kinase 2 (TYK2), recombinant catalytic domain. The experiment can be described thus: LanthaScreen TR-FRET enzymatic assay, TYK2. It counts as biochemical. The conditions noted are these: ratio of IC50 against TYK2 over IC50 against JAK1. How it is done:
as §1, §2, §3, §4

For experiment [7], the target named is JAK1 (Homo sapiens (Human), UniProt P23458). The experiment can be described thus: Cellular JAK1 assay: IL-6-mediated STAT3 phosphorylation in TF-1 cells. The conditions noted are these: IL-6 stimulation, STAT3 phosphorylation at Tyr705 (AlphaLISA), read-out: Inhibitory Activity Against JAK1 IC50. It counts as cell-based. Here is the method: The cellular potency of a compound on JAK1 or JAK2 inhibition is determined by measuring the cytokine-mediated phosphorylation of STAT proteins in TF-1 cells.
JAK1, sequence (P23458 whole entry): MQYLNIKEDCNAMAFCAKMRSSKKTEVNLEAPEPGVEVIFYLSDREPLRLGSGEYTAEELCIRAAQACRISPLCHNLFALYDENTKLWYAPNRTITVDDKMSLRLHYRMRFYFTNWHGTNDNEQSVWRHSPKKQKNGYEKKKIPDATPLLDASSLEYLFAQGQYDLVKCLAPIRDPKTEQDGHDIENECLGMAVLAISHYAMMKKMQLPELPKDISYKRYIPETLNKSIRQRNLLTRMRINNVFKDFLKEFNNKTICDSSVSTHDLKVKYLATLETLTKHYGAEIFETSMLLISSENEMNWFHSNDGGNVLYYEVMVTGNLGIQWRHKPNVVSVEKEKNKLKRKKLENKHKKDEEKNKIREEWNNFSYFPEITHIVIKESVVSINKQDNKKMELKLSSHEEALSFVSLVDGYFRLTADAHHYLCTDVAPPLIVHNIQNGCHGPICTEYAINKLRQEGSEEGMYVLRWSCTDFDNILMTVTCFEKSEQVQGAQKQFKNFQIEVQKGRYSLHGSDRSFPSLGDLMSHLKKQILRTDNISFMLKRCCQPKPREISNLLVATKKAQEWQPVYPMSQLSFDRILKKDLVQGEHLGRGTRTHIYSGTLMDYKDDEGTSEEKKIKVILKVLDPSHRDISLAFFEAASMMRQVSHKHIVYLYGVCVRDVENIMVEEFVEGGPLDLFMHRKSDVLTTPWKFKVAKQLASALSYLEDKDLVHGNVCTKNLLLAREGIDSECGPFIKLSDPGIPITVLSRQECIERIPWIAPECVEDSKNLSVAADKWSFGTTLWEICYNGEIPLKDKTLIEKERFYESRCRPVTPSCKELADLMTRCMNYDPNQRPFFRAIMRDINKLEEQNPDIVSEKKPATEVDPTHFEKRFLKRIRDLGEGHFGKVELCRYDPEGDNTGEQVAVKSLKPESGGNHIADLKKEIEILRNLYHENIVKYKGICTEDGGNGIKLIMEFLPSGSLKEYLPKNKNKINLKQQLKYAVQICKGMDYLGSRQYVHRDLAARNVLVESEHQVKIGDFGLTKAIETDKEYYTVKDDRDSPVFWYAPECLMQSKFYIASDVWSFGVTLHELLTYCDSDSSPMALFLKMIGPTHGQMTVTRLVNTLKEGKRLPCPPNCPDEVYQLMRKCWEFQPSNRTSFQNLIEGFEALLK
Human cytokines of IL-6 (R&D Systems, Cat. No. 206-IL-010/CF) and GM-CSF (R&D Systems, Cat. No. 215-GM-010/CF) are reconstituted at 10 μg/mL in D-PBS containing 0.1% BSA (Sigma, Cat. No. A8577) and human EPO (R&D Systems, Cat. No. 287-TC-500) at 500 U/mL in D-PBS containing 0.1% BSA. TF-1 cells (ATCC, CRL-2003) were grown in RPMI1640 (ATCC, Cat. No. 30-2001) supplemented with 2 ng/mL of recombinant human GM-CSF, 10% FBS (Gibco, Cat. No. 10437-028), and 100 U/mL penicillin-streptomycin (Gibco, Cat. No. 15140-122). The cells were maintained and propagated between 1×10^5 cells/mL to 7.5×10^5 cells/mL. Aliquots of the cells from early passages were preserved for liquid nitrogen storage. Frozen vials of the cells were thawed at 37° C. water bath. The cells were spun to remove freezing medium. The newly revived frozen cells were adapted in culture for 5-7 days before used for compound testing. The cells used in for compound testing were less than 20 subculture passages or 3 months in culture.
To test compounds, the TF-1 cells were harvested at a density of 3 to 7×10^5 cells/mL by centrifugation. After removing the culture medium, the resulting cell pellet was suspended and washed once by centrifugation with HBSS buffer (Gibco, Cat. No. 14025-092) containing 0.1% BSA. The cell pellet was resuspended in HBSS buffer at 7.5×10^6 cells/mL. Four micro-liters of the cells (3×10^4 cells in total) were added to each well of a white 384-well plate (Packard, Cat. No. 6005214).
The compounds were first diluted in dimethylsulfoxide (DMSO) (Sigma, Cat. No. D2650) to generate 9 3-fold diluted dosing concentrations in a 96-well polypropylene plate (Corning, Cat. No. 3365), followed by addition of HBSS buffer for another 125-fold dilution. To the cells, 2 μL of the diluted compounds were added and mixed by tapping the plate several times. The cells were incubated for 2 hrs of treatment. DMSO was used as a control and similarly diluted along and added to the cells.
To assay JAK1 inhibition, 2 μL of IL-6 diluted at 400 ng/mL (4×) in HBSS containing 0.1% BSA was added to the treated cells. The cells were then incubated for 30 min of cytokine treatment and lysed at the end by addition of 2 μL of 5×AlphaLISA SureFire Ultra lysis buffer from Perkin Elmer. The plate was agitated on a plate shaker for 10 min at room temperature. The cellular JAK1 activity was determined by measuring STAT3 phosphorylation at Tyr705 in lysates using the AlphaLISA SureFire Ultra kit (Perkin Elmer, Cat. No. ALSU-PST3-A500). A volume of 5 μL of acceptor mix and donor mix was added sequentially to lysates following the product protocol. The assay signals were recorded on EnVision plate reader (Perkin Elmer) with AlphaScreen optics setting.
The results are summarized in Table 3, where A represents a value no greater than 500 nM, B represents a value greater than 500 nM but no greater than 1 μM, C represents a value greater than 1 μM but no greater than 5 μM, and D represents a value greater than 5 μM.

human Janus kinase 3 (JAK3), recombinant catalytic domain (Homo sapiens (Human), UniProt P52333), sequence (P52333 781-1124): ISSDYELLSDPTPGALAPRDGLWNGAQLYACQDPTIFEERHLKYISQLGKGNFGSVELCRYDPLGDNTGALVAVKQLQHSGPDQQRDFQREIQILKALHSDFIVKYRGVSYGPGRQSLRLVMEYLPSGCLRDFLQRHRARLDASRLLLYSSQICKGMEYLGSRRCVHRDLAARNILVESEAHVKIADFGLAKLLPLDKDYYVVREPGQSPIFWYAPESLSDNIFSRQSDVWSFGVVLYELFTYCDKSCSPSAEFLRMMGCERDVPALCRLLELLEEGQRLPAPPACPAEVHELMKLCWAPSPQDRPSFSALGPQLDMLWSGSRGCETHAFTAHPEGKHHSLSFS
human Janus kinase 2 (JAK2), recombinant catalytic domain, sequence (O60674 808-1132): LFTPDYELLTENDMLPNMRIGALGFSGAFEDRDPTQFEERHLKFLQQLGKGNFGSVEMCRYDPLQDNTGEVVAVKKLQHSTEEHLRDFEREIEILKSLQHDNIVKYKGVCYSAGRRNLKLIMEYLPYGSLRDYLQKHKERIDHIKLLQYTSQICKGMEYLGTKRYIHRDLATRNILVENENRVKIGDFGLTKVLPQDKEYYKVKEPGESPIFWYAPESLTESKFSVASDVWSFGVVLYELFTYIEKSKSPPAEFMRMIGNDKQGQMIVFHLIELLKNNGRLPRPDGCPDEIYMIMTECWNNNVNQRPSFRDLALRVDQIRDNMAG
human tyrosine kinase 2 (TYK2), recombinant catalytic domain (Homo sapiens (Human), UniProt P29597), sequence (P29597 833-1187): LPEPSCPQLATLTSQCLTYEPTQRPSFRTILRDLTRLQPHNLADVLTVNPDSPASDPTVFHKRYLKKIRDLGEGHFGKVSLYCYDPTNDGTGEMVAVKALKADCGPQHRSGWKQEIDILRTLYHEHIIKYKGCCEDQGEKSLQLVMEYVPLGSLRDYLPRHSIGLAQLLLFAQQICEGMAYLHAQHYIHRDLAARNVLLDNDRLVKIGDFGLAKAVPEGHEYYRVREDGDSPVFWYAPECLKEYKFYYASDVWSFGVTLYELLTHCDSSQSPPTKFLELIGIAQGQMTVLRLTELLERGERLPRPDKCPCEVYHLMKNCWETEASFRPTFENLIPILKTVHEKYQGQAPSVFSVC
human Janus kinase 1 (JAK1), recombinant catalytic domain, sequence (P23458 866-1154): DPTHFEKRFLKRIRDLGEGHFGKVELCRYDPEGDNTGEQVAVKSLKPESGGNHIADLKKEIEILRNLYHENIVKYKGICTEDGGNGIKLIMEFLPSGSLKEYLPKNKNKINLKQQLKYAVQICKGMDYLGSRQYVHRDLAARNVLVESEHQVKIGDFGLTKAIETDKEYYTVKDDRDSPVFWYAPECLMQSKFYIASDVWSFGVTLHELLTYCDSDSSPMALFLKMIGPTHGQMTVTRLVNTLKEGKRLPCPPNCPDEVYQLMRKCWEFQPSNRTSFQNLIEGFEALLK

On to `O=C(Nc1cn2c(-c3ccc(NS(=O)(=O)C4CC4)cc3)cccc2n1)C1CC1` [Compound 30], for which the concentration for half-maximal inhibition (IC50) is no more than 500 nM in experiment [1]; 500 to 1000 nM in experiment [2]; greater than 5000 nM in experiment [3]; no more than 500 nM in experiment [5]; no more than 500 nM in experiment [7]. In experiment [2], the “Selectivity JAK2/JAK1” value is recorded as “A′ (A′ represents a ratio of greater than 8)”. For the same compound, in experiment [4], the “Selectivity JAK3/JAK1” value was “A′ (A′ represents a ratio of greater than 8)”. Further, in experiment [6], the “Selectivity TYK2/JAK1” value is reported as “B′ (B′ represents a ratio of no greater than 8 but no less than 4)”.

With `O=C(Nc1cn2c(-c3ccc(CN4CCS(=O)(=O)CC4)c(F)c3)cccc2n1)C1CC1` [Compound 28], the IC50 in experiment [1] is no more than 500 nM; in experiment [2] it was 500 to 1000 nM; in experiment [3], greater than 5000 nM; in experiment [5] it was 500 to 1000 nM; in experiment [7], no more than 500 nM. Moreover, the “Selectivity JAK2/JAK1” value in experiment [2] was “A′ (A′ represents a ratio of greater than 8)”. The “Selectivity JAK3/JAK1” value in experiment [4] was “A′ (A′ represents a ratio of greater than 8)”. In addition, the “Selectivity TYK2/JAK1” value in experiment [6] is “A′ (A′ represents a ratio of greater than 8)”.

Regarding `CC1(C)CN(C(=O)c2ccc(-c3cccc4nc(NC(=O)C5CC5)cn34)cc2)C1` [Compound 17], the IC50 is no more than 500 nM in experiment [1]; 1000 to 5000 nM in experiment [2]; greater than 5000 nM in experiment [3]; 1000 to 5000 nM in experiment [5]; no more than 500 nM in experiment [7]. Moreover, the “Selectivity JAK2/JAK1” value in experiment [2] is “A′ (A′ represents a ratio of greater than 8)”. The “Selectivity JAK3/JAK1” value in experiment [4] is listed as “A′ (A′ represents a ratio of greater than 8)”. Also, the “Selectivity TYK2/JAK1” value in experiment [6] is recorded as “A′ (A′ represents a ratio of greater than 8)”.

`O=C(Nc1cn2c(-c3ccc(CN4CCS(=O)(=O)CC4)cc3)cccc2n1)C1CC1` [Compound 1, N-(5-(4-((1,1-Dioxo-1-thiomorpholino)methyl)phenyl)imidazo[1,2-a]pyridin-2-yl) cyclopropanecarboxamide]: the IC50 is no more than 500 nM in experiment [1]; 1000 to 5000 nM in experiment [2]; greater than 5000 nM in experiment [3]; 1000 to 5000 nM in experiment [5]; no more than 500 nM in experiment [7]. Moreover, in experiment [2], the “Selectivity JAK2/JAK1” value is given as “A′ (A′ represents a ratio of greater than 8)”. The “Selectivity JAK3/JAK1” value in experiment [4] was “A′ (A′ represents a ratio of greater than 8)”. Besides, in experiment [6], the “Selectivity TYK2/JAK1” value is “A′ (A′ represents a ratio of greater than 8)”.

As for `CC1(C)CN(C(=O)c2ccc(-c3cccc4nc(NC(=O)C5CC5)cn34)cc2F)C1` [Compound 24], the half-maximal inhibitory concentration (IC50) in experiment [1] is no more than 500 nM; in experiment [2], 1000 to 5000 nM; in experiment [3], greater than 5000 nM; in experiment [5], 1000 to 5000 nM; in experiment [7], no more than 500 nM. Besides, in experiment [2], the “Selectivity JAK2/JAK1” value was “A′ (A′ represents a ratio of greater than 8)”. Also, the “Selectivity JAK3/JAK1” value in experiment [4] is recorded as “A′ (A′ represents a ratio of greater than 8)”. Besides, the “Selectivity TYK2/JAK1” value in experiment [6] is listed as “A′ (A′ represents a ratio of greater than 8)”.

Regarding `N#CCc1ccc(-c2cccc3nc(NC(=O)C4CC4)cn23)cc1F` [Compound 26], the concentration for half-maximal inhibition (IC50) in experiment [1] is no more than 500 nM; in experiment [2] it was greater than 5000 nM; in experiment [3], greater than 5000 nM; in experiment [5], greater than 5000 nM; in experiment [7] it was no more than 500 nM. The “Selectivity JAK2/JAK1” value in experiment [2] is on record as “A′ (A′ represents a ratio of greater than 8)”. In addition, the “Selectivity JAK3/JAK1” value in experiment [4] is “A′ (A′ represents a ratio of greater than 8)”. Also, the “Selectivity TYK2/JAK1” value in experiment [6] is listed as “A′ (A′ represents a ratio of greater than 8)”.
